One molecule from ChEMBL document CHEMBL1140238, “Synthesis of selective SRPK-1 inhibitors: novel tricyclic quinoxaline derivatives” (Bioorg Med Chem Lett, 2005) can be followed below.

The assay can be described thus: Inhibitory activity against Platelet-derived growth factor receptor kinase.

The structures appear in SMILES notation.

The molecule `c1ccc(-c2cnc3cc4ccccc4cc3n2)cc1` registered an IC50 of 900 nM.

The term IC50 denotes the concentration needed to halve the response being measured. The low end stands for inhibition by little substance, the high end for a need for much substance.
